Source: PubChem BioAssay AID1918957 (Molecular Pharmacology Branch, DTP, NCI, 2023)

Tested on: NCI-H1876 complex spheroid viability
Assay: Anticancer human tumor NCI-H1876 cell line growth inhibition [LSD1];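 also: spheroids exposed to compounds for one week before readout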;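 as to viability, T/C: 100% = DMSO vehicle-treated spheroids so lower means fewer viable cells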
Conditions: for IC50: curve of first compound; for viability, T/C: stronger effect = lower value
How it was run: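 Complex spheroids of tumor cells with HUVEC and human MSCs, exposed to iadademstat combined with other agents. Each agent tested in half-log steps from near clinical Cmax (else 10 microM top), DMSO ≤0.25%.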

[1] = second compound 0.1 µM, first compound 0.000316 µM
[2] = second compound 0.1 µM, first compound 0.001 µM
[3] = second compound 0.1 µM, first compound 0.00316 µM
[4] = second compound 0.1 µM, first compound 0.01 µM
[5] = second compound 0.1 µM, first compound 0.0316 µM
[6] = second compound 0.1 µM, first compound 0.1 µM
[7] = second compound 0.316 µM, first compound 0.000316 µM
[8] = second compound 0.316 µM, first compound 0.001 µM
[9] = second compound 0.316 µM, first compound 0.00316 µM
[10] = second compound 0.316 µM, first compound 0.01 µM
[11] = second compound 0.316 µM, first compound 0.0316 µM
[12] = second compound 0.316 µM, first compound 0.1 µM
[13] = second compound 1 µM, first compound 0.000316 µM
[14] = second compound 1 µM, first compound 0.001 µM
[15] = second compound 1 µM, first compound 0.00316 µM
[16] = second compound 1 µM, first compound 0.01 µM
[17] = second compound 1 µM, first compound 0.0316 µM
[18] = second compound 1 µM, first compound 0.1 µM
[19] = second compound 3.16 µM, first compound 0.000316 µM
[20] = second compound 3.16 µM, first compound 0.001 µM
[21] = second compound 3.16 µM, first compound 0.00316 µM
[22] = second compound 3.16 µM, first compound 0.01 µM
[23] = second compound 3.16 µM, first compound 0.0316 µM
[24] = second compound 3.16 µM, first compound 0.1 µM
[25] = second compound 10 µM, first compound 0.000316 µM
[26] = second compound 10 µM, first compound 0.001 µM
[27] = second compound 10 µM, first compound 0.00316 µM
[28] = second compound 10 µM, first compound 0.01 µM
[29] = second compound 10 µM, first compound 0.0316 µM
[30] = second compound 10 µM, first compound 0.1 µM

SMILES: CC(C)CC(NC(=O)C(Cc1ccccc1)NC(=O)c1cnccn1)B(O)O (stereo not given) + NC1CCC(NC2CC2c2ccccc2)CC1
- IC50 (second compound 0.1 µM): 0.602 nM
- IC50 (second compound 0.316 µM): 0.563 nM
- IC50 (second compound 1 µM): 0.555 nM
- IC50 (second compound 3.16 µM): 0.449 nM
- IC50 (second compound 10 µM): 0.485 nM
- viability, T/C [1]: 92.6%
- viability, T/C [2]: 16.3%
- viability, T/C [3]: 31.7%
- viability, T/C [4]: 14.5%
- viability, T/C [5]: 0.17%
- viability, T/C [6]: 3.63%
- viability, T/C [7]: 89.3%
- viability, T/C [8]: 9.55%
- viability, T/C [9]: 13.6%
- viability, T/C [10]: 17.3%
- viability, T/C [11]: 10.1%
- viability, T/C [12]: 3.61%
- viability, T/C [13]: 82%
- viability, T/C [14]: 16.4%
- viability, T/C [15]: 13.8%
- viability, T/C [16]: 13.1%
- viability, T/C [17]: 7.48%
- viability, T/C [18]: 11.4%
- viability, T/C [19]: 70%
- viability, T/C [20]: 0.39%
- viability, T/C [21]: 9.3%
- viability, T/C [22]: 3.65%
- viability, T/C [23]: 0.15%
- viability, T/C [24]: 10.3%
- viability, T/C [25]: 74%
- viability, T/C [26]: 9.39%
- viability, T/C [27]: 7.81%
- viability, T/C [28]: 7.31%
- viability, T/C [29]: 3.77%
- viability, T/C [30]: 12.5%

SMILES: CC(C)CC(NC(=O)CNC(=O)c1cc(Cl)ccc1Cl)B1OC(=O)CC(CC(=O)O)(C(=O)O)O1 (stereo not given) + NC1CCC(NC2CC2c2ccccc2)CC1
- IC50 (second compound 0.1 µM): 9.07 nM
- IC50 (second compound 0.316 µM): 8.75 nM
- IC50 (second compound 1 µM): 7.91 nM
- IC50 (second compound 3.16 µM): 7.93 nM
- IC50 (second compound 10 µM): 7.52 nM
- viability, T/C [1]: 94.5%
- viability, T/C [2]: 109%
- viability, T/C [3]: 104%
- viability, T/C [4]: 45.1%
- viability, T/C [5]: 8.77%
- viability, T/C [6]: 0.58%
- viability, T/C [7]: 98.2%
- viability, T/C [8]: 108%
- viability, T/C [9]: 104%
- viability, T/C [10]: 43%
- viability, T/C [11]: 7.91%
- viability, T/C [12]: 17.4%
- viability, T/C [13]: 99.3%
- viability, T/C [14]: 97.2%
- viability, T/C [15]: 96.2%
- viability, T/C [16]: 38.2%
- viability, T/C [17]: 9.23%
- viability, T/C [18]: 7.49%
- viability, T/C [19]: 105%
- viability, T/C [20]: 112%
- viability, T/C [21]: 99%
- viability, T/C [22]: 36.5%
- viability, T/C [23]: 18.1%
- viability, T/C [24]: 0.81%
- viability, T/C [25]: 99%
- viability, T/C [26]: 104%
- viability, T/C [27]: 93.9%
- viability, T/C [28]: 35.5%
- viability, T/C [29]: 15.6%
- viability, T/C [30]: 13.8%

SMILES: Nc1ccccc1NC(=O)c1ccc(CNC(=O)OCc2cccnc2)cc1 + NC1CCC(NC2CC2c2ccccc2)CC1
- IC50 (second compound 0.1 µM): 186 nM
- IC50 (second compound 0.316 µM): 177 nM
- IC50 (second compound 1 µM): 185 nM
- IC50 (second compound 3.16 µM): 170 nM
- IC50 (second compound 10 µM): 179 nM
- viability, T/C (second compound 0.1 µM, first compound 0.00949 µM): 98.5%
- viability, T/C (second compound 0.1 µM, first compound 0.03 µM): 109%
- viability, T/C (second compound 0.1 µM, first compound 0.0949 µM): 90.6%
- viability, T/C (second compound 0.1 µM, first compound 0.3 µM): 21.2%
- viability, T/C (second compound 0.1 µM, first compound 0.949 µM): 4.45%
- viability, T/C (second compound 0.1 µM, first compound 3 µM): 1.28%
- viability, T/C (second compound 0.316 µM, first compound 0.00949 µM): 113%
- viability, T/C (second compound 0.316 µM, first compound 0.03 µM): 108%
- viability, T/C (second compound 0.316 µM, first compound 0.0949 µM): 78.3%
- viability, T/C (second compound 0.316 µM, first compound 0.3 µM): 26.3%
- viability, T/C (second compound 0.316 µM, first compound 0.949 µM): 3.15%
- viability, T/C (second compound 0.316 µM, first compound 3 µM): 1.03%
- viability, T/C (second compound 1 µM, first compound 0.00949 µM): 114%
- viability, T/C (second compound 1 µM, first compound 0.03 µM): 115%
- viability, T/C (second compound 1 µM, first compound 0.0949 µM): 86.2%
- viability, T/C (second compound 1 µM, first compound 0.3 µM): 23.3%
- viability, T/C (second compound 1 µM, first compound 0.949 µM): 11.6%
- viability, T/C (second compound 1 µM, first compound 3 µM): 1.66%
- viability, T/C (second compound 3.16 µM, first compound 0.00949 µM): 111%
- viability, T/C (second compound 3.16 µM, first compound 0.03 µM): 104%
- viability, T/C (second compound 3.16 µM, first compound 0.0949 µM): 80%
- viability, T/C (second compound 3.16 µM, first compound 0.3 µM): 21.2%
- viability, T/C (second compound 3.16 µM, first compound 0.949 µM): 2.36%
- viability, T/C (second compound 3.16 µM, first compound 3 µM): 0.71%
- viability, T/C (second compound 10 µM, first compound 0.00949 µM): 102%
- viability, T/C (second compound 10 µM, first compound 0.03 µM): 102%
- viability, T/C (second compound 10 µM, first compound 0.0949 µM): 86.5%
- viability, T/C (second compound 10 µM, first compound 0.3 µM): 20.2%
- viability, T/C (second compound 10 µM, first compound 0.949 µM): 10.6%
- viability, T/C (second compound 10 µM, first compound 3 µM): 1.74%

SMILES: O=C(c1cc(Cc2n[nH]c(=O)c3ccccc23)ccc1F)N1CCN(C(=O)C2CC2)CC1 + NC1CCC(NC2CC2c2ccccc2)CC1
- IC50 (second compound 0.1 µM): 6620 nM
- IC50 (second compound 0.316 µM): 6160 nM
- IC50 (second compound 1 µM): 6130 nM
- IC50 (second compound 3.16 µM): 5370 nM
- IC50 (second compound 10 µM): 5050 nM
- viability, T/C [5]: 90.7%
- viability, T/C [6]: 99.4%
- viability, T/C (second compound 0.1 µM, first compound 0.316 µM): 89.4%
- viability, T/C (second compound 0.1 µM, first compound 1 µM): 94.8%
- viability, T/C (second compound 0.1 µM, first compound 3.16 µM): 76.2%
- viability, T/C (second compound 0.1 µM, first compound 10 µM): 35.4%
- viability, T/C [11]: 99.2%
- viability, T/C [12]: 93%
- viability, T/C (second compound 0.316 µM, first compound 0.316 µM): 89.4%
- viability, T/C (second compound 0.316 µM, first compound 1 µM): 87.2%
- viability, T/C (second compound 0.316 µM, first compound 3.16 µM): 69.5%
- viability, T/C (second compound 0.316 µM, first compound 10 µM): 35.5%
- viability, T/C [17]: 90.2%
- viability, T/C [18]: 93%
- viability, T/C (second compound 1 µM, first compound 0.316 µM): 91.5%
- viability, T/C (second compound 1 µM, first compound 1 µM): 79.7%
- viability, T/C (second compound 1 µM, first compound 3.16 µM): 70.5%
- viability, T/C (second compound 1 µM, first compound 10 µM): 35.8%
- viability, T/C [23]: 90.7%
- viability, T/C [24]: 95.4%
- viability, T/C (second compound 3.16 µM, first compound 0.316 µM): 86.7%
- viability, T/C (second compound 3.16 µM, first compound 1 µM): 86.7%
- viability, T/C (second compound 3.16 µM, first compound 3.16 µM): 64.5%
- viability, T/C (second compound 3.16 µM, first compound 10 µM): 32.7%
- viability, T/C [29]: 95.7%
- viability, T/C [30]: 90.6%
- viability, T/C (second compound 10 µM, first compound 0.316 µM): 85.9%
- viability, T/C (second compound 10 µM, first compound 1 µM): 79.8%
- viability, T/C (second compound 10 µM, first compound 3.16 µM): 64.6%
- viability, T/C (second compound 10 µM, first compound 10 µM): 29.9%
